Like-named read-outs stand apart in the source and are kept apart here.
Legend:
[1] = system: P. berghei-ANKA-GFP-LucCON liver stage parasites in HepG2-A16-CD81EGFP cells; test: P. berghei liver stage Pb-Luc assay, Method 1 (UCSD, 1536-well); type: cell-based, Plasmodium berghei; settings: for Max Resp (signal direction of the dose response) / AC50 / Log AC50 (M): Method 1; for Max Resp (signal direction of the dose response): Decrease = decreasing P. berghei viability with dose, Increase = increasing signal, Inactive = no dose response; for activity at 1 µM / activity at 3 µM: 48 h, average of 2 wells on a 1536 well plate
[2] = system: Plasmodium falciparum Dd2 asexual blood stage parasites; test: microbe, parasite or virus in culture; parameters: species or system Plasmodium falciparum Dd2 in human erythrocytes; single determination (one 11-point concentration-response curve); settings: Plasmodium falciparum, DD2, Erythrocyte, 72 h; read-out: AC50
in vitro [3] = settings: human
in vitro [4] = settings: human, n = 1
HepG2-A16-CD81EGFP cells = settings: average of 2 wells; for HepG2 1uM growth rep1 / HepG2 1uM growth rep2: HepG2, 1 µM compound treatment (10 mM stocks); for HepG2 1uM growth rep1 / HepG2 3uM growth rep1: replicate 1, normalized; for HepG2 1uM growth rep2 / HepG2 3uM growth rep2: replicate 2, normalized; for HepG2 3uM growth rep1 / HepG2 3uM growth rep2: HepG2, 3 µM compound treatment (10 mM stocks)
[5] = Hill fit, 50% of maximum activity response, read-out: AC50
[6] = log10 of molar AC50 from Hill fit
[7] = Plasmodium berghei, Hill fit, 50% of maximum activity response, read-out: AC50
[8] = Plasmodium berghei, log10 of molar AC50 from Hill fit, read-out: Log AC50 (converted)
[9] = HepG2-A16-CD81EGFP cells, uninfected
[10] = Plasmodium berghei, P. berghei liver stage, 1 µM compound treatment (10 mM stocks), replicate 1, normalized, read-out: PbLuc 1uM growth rep1
[11] = Plasmodium berghei, P. berghei liver stage, 1 µM compound treatment (10 mM stocks), replicate 2, normalized, read-out: PbLuc 1uM growth rep2
[12] = Plasmodium berghei, P. berghei liver stage, 3 µM compound treatment (10 mM stocks), replicate 1, normalized, read-out: PbLuc 3uM growth rep1
[13] = Plasmodium berghei, P. berghei liver stage, 3 µM compound treatment (10 mM stocks), replicate 2, normalized, read-out: PbLuc 3uM growth rep2
[14] = Plasmodium berghei, 1 uM (compounds provided at 10 mM), column 11, read-out: Pb-Luc (P. berghei liver stage), % of control, lower concentration, first repeat
[15] = Plasmodium berghei, 1 uM (compounds provided at 10 mM), column 12, read-out: Pb-Luc (P. berghei liver stage), % of control, lower concentration, second repeat
[16] = Plasmodium berghei, 3 uM (compounds provided at 10 mM), column 8, read-out: Pb-Luc (P. berghei liver stage), % of control, higher concentration, first repeat
[17] = Plasmodium berghei, 3 uM (compounds provided at 10 mM), column 9, read-out: Pb-Luc (P. berghei liver stage), % of control, higher concentration, second repeat

| Structure (SMILES) | Max Resp (signal direction of the dose response) [1] | AC50 [2] [µM] | viability at 66 h (in vitro [3]; [9]) [%] | CC50 at 48 h (in vitro [4]; HepG2 cells) [µM] | viability at 48 h, 1 µM (in vitro [3]; [9]) [%] | viability at 48 h, 3 µM (in vitro [3]; [9]) [%] | also measured |
| --- | --- | --- | --- | --- | --- | --- | --- |
| O=C1c2cc(F)ccc2-n2c1nc1ccccc1c2=O [MLS001216278-01] | Decrease | 0.119 | 95.7 | 12.2 | – | – | AC50 [1, 5]: 0.004 µM; Log AC50 (M) [1, 6]: -8.400 M; AC50 [1, 7]: 0.00355 µM; AC50 [1, 8]: 0.00355 µM |
| CN(C)CCCn1cnc2c(c1=N)C(c1ccccc1)c1ccc3ccccc3c1O2 (stereo not shown) [MLS001216375-01] | – | 3.76 | – | 30.6 | 111 | 110 | – |
| CCOC(=O)C1CCN(C(=O)c2c(C)oc3c2C(=O)c2ccccc2C3=O)CC1 [MLS000724686-01] | – | 0.531 | 103 | 15.3 | – | – | – |
| O=C(Nc1ccc([N+](=O)[O-])cc1)Nc1nc(-c2ccc(Cl)s2)cs1 [MLS000722351-01] | Decrease | 2.99 | 90 | 13.7 | – | – | AC50 [1, 5]: 0.224 µM; Log AC50 (M) [1, 6]: -6.650 M; AC50 [1, 7]: 0.178 µM; AC50 [1, 8]: 0.178 µM |
| CCNC(S)=N/N=C/c1sc(N2CCCCC2)nc1-c1cccs1 [MLS000335256-01] | – | 0.668 | 103 | 15.3 | – | – | – |
| COc1cnc(-c2ccccn2)nc1Sc1c(Cl)cccc1Cl [MLS000325774-01] | – | 2.99 | – | 24.3 | 106 | 99 | – |
| O=C(NCCNc1ccnc2cc(Cl)ccc12)c1ccccc1F [MLS001163130-01] | – | 1.68 | – | 27.3 | 106 | 86 | – |
| O=C(CCl)Nc1cccc(-c2cnc3ccccc3n2)c1 [MLS000541295-01] | – | 6.68 | – | 13.7 | – | – | activity at 1 µM [1, 10]: 128%; activity at 1 µM [1, 11]: 119%; activity at 3 µM [1, 12]: 151%; activity at 3 µM [1, 13]: 185%; HepG2 1uM growth rep1 (HepG2-A16-CD81EGFP cells): 90%; HepG2 1uM growth rep2 (HepG2-A16-CD81EGFP cells): 88%; HepG2 3uM growth rep1 (HepG2-A16-CD81EGFP cells): 89%; HepG2 3uM growth rep2 (HepG2-A16-CD81EGFP cells): 88% |
| N=c1ccn(Cc2ccc(Cl)cc2Cl)cc1 [MLS000554049-01] | Inactive | 8.41 | – | 19.3 | 89.2 | – | viability at 48 h (in vitro [3]; [9]): 89.2% |
| N=c1ccn(Cc2ccc(Cl)c(Cl)c2)cc1 [MLS000080112-01] | Decrease | 6.68 | 99.6 | 30.6 | – | – | AC50 [1, 5]: 1.58 µM; Log AC50 (M) [1, 6]: -5.800 M; AC50 [1, 7]: 1.41 µM; AC50 [1, 8]: 1.41 µM |
| Oc1ccc(-c2nnc(S)n2-c2ccc3c(c2)OCCO3)c(O)c1 [MLS000332001-01] | – | 2.66 | – | 17.2 | 98 | 95 | – |
| CCCN(CCC)c1nc(-c2ccccn2)nc2ccccc12 [MLS001165172-01] | – | 5.31 | – | 9.68 | 112 | 90 | activity at 1 µM [1, 14]: 92%; activity at 1 µM [1, 15]: 102%; activity at 3 µM [1, 16]: 8%; activity at 3 µM [1, 17]: 7% |
| COc1ccccc1NS(=O)(=O)c1cc(NC(=O)c2ccc(Cl)nc2)ccc1Cl [MLS000417369-01] | Decrease | – | 96.5 | 19.3 | – | – | AC50 [1, 5]: 2.51 µM; Log AC50 (M) [1, 6]: -5.600 M; AC50 [1, 7]: 2 µM; AC50 [1, 8]: 2 µM |
| C/C(=N\NC(=O)c1ccccc1OCc1ccc(F)cc1)c1ccccn1 [MLS002162875-01] | – | 4.73 | – | 17.2 | 105 | 79 | – |
| O=C(Nc1ncccc1O)c1ccc(NS(=O)(=O)c2ccc3[nH]c(=O)[nH]c3c2)cc1 [MLS001138628-01] | – | 0.422 | – | 21.7 | – | – | activity at 1 µM [1, 10]: 61%; activity at 1 µM [1, 11]: 57%; activity at 3 µM [1, 12]: 21%; activity at 3 µM [1, 13]: 25%; HepG2 1uM growth rep1 (HepG2-A16-CD81EGFP cells): 110%; HepG2 1uM growth rep2 (HepG2-A16-CD81EGFP cells): 100%; HepG2 3uM growth rep1 (HepG2-A16-CD81EGFP cells): 89%; HepG2 3uM growth rep2 (HepG2-A16-CD81EGFP cells): 93% |
| Oc1cc(Nc2ccc(N3CCCCC3)cc2)cc2cccnc12 [NCGC00183804-01] | – | 0.841 | – | 17.2 | 105 | 94 | – |
| c1ccc(CNc2nc(-c3ccccn3)nc3ccccc23)cc1 [MLS001165148-01] | – | 5.31 | – | 10.9 | 93 | 87 | – |
| Cc1ccc(Cl)cc1NC(=O)c1cc2ccccc2cc1O [MLS000738149-01] | – | 1.5 | – | – | – | – | activity at 1 µM [1, 14]: 92%; activity at 1 µM [1, 15]: 94%; activity at 3 µM [1, 16]: 38%; activity at 3 µM [1, 17]: 81%; viability at 48 h, 1 µM (in vitro [3]): 104%; viability at 48 h, 3 µM (in vitro [3]): 69%; CC50 at 48 h (in vitro [4]; hepg2): 21.7 µM |
| O=C1c2ccccc2C(=O)c2[nH]c(=O)[nH]c21 [MLS001173438-01] | Decrease | 5.96 | 95.7 | 10.9 | – | – | AC50 [1, 7]: 1.58 µM; AC50 [1, 8]: 1.58 µM |
| COc1ccc(Nc2cc(O)c3ncccc3c2)cc1 [NCGC00183797-01] | – | 0.75 | – | 19.3 | 89 | 73 | – |
| O=C1C(Nc2ccccc2)=C/C(=N\S(=O)(=O)c2cccs2)c2ccccc21 [MLS000374486-01] | – | 0.335 | – | 12.2 | 101 | 76 | – |
| O=C(Nc1nc(-c2ccccn2)cs1)c1cccc(S(=O)(=O)N2CCOCC2)c1 [MLS002161290-01] | – | 5.96 | – | 9.68 | 98 | 60 | activity at 1 µM [1, 14]: 17%; activity at 1 µM [1, 15]: 16%; activity at 3 µM [1, 16]: 7%; activity at 3 µM [1, 17]: 7% |
| CC(=O)N(C)C1=C(N2CCOCC2)C(=O)c2ccccc2C1=O [MLS000570886-01] | Decrease | 0.841 | 92.5 | 10.9 | – | – | AC50 [1, 5]: 1.58 µM; Log AC50 (M) [1, 6]: -5.800 M; AC50 [1, 7]: 1.26 µM; AC50 [1, 8]: 1.26 µM |
| CC(C)Nc1ccc(Nc2ccnc3cc4ccccc4cc23)cc1 [MLS000766754-01] | – | – | – | 27.3 | 114 | 78 | activity at 1 µM [1, 14]: 101%; activity at 1 µM [1, 15]: 80%; activity at 3 µM [1, 16]: 10%; activity at 3 µM [1, 17]: 14% |
| CCOC(=O)c1cnc(-n2nc(C)cc2C)nc1NC1CCCC1 [MLS000333072-01] | Inactive | 8.41 | 107 | 17.2 | – | – | – |
| CCN1CCN(c2ccc(Nc3ccnc4ccccc34)cc2)CC1 [MLS001360577-01] | – | 1.06 | – | 17.2 | 95 | 91 | – |
| O=C1Nc2ccccc2C1=NN=C(S)N1CCOCC1 [MLS000778251-01] | Decrease | 2.11 | 86.1 | 15.3 | – | – | AC50 [1, 5]: 0.316 µM; Log AC50 (M) [1, 6]: -6.500 M; AC50 [1, 7]: 0.251 µM; AC50 [1, 8]: 0.251 µM |
| c1ccc(CCNc2nc(-c3ccccn3)nc3ccccc23)cc1 [MLS000769840-01] | Inactive | 4.73 | – | 10.9 | 96.1 | – | viability at 48 h (in vitro [3]; [9]): 96.1% |
| c1ccc(CCNc2ccnc3cc4ccccc4cc23)cc1 [MLS000717866-01] | Decrease | 1.68 | 93.8 | 10.9 | – | – | AC50 [1, 5]: 0.501 µM; Log AC50 (M) [1, 6]: -6.300 M; AC50 [1, 7]: 0.398 µM; AC50 [1, 8]: 0.398 µM |
